# Results from patent publication US20110091531A1, “Cooling Composition” (GIV AUDAN SA, priority 2008, published 2011).
# Test: Solubility of Evercool 180 alone in solvent under regular conditions
# Format: physicochemical
compound,measurement,setting,value
"CC(C)[C@@H]1CC[C@@H](C)C[C@H]1C(=O)Nc1ccc(CC#N)cc1 [Evercool™ 180, (1R,2S,5R)—N-(4-(cyanomethyl)phenyl)-2-isopropyl-5-methylcyclohexane-carboxamide]",Soluble in menthol,at 65° C. under regular conditions,17%
same,Soluble in peppermint oil,at room temperature under regular conditions,12%
same,Solubility in Orange oil (1× Brazilian),under regular conditions,> 1%
